Data as given in US20250263395A1, “COMPOUNDS THAT MEDIATE PROTEIN DEGRADATION AND METHODS OF USE THEREOF” (Monte Rosa Therapeutics AG, priority 2022, published 2025).

How the values were obtained:
CRBN-DDB1 = CRBN-DDB1 (Homo sapiens (Human), UniProt Q96SW2); assay: CRBN HTRF assay (Cy5-Thalidomide probe displacement); assay type: binding; conditions: CRBN-DDB1 2.5 nM, Cy5-Thalidomide 100 nM, 30 min; Ki from geometric mean IC50 by Cheng-Prusoff
Experimental: Compound activity was monitored in a Homogenous Time-Resolved Fluorescence (HTRF) assay using 1-[5-({2-[2-(2-{[2-(2,6-dioxopiperidin-3-yl)-1,3-dioxo-2,3-dihydro-1H-isoindol-4-yl]oxy}acetamido)ethoxy]ethyl}carbamoyl)pentyl]-3,3-dimethyl-2-[(1E,3E)-5-[(2E)-1,3,3-trimethyl-5-sulfo-2,3-dihydro-1H-indol-2-ylidene]penta-1,3-dien-1-yl]-3H-indol-1-ium-5-sulfonate as a fluorescent probe. Biochemical assays were conducted in Greiner white 384 well HiBase plates (Cat. No 784075-25) in 10 μL total volume. A one pot detection solution of CRBN-DDB1 (2.5 nM), Anti-His Terbium Cryptate Gold (1×, PerkinElmer Cat. #: 61HI2TLB), and Cy5-Thalidomide (100 nM, Tenova Cat.: T52461) was prepared in 20 mM HEPES, 20 mM NaCl, 0.2 mM TCEP, 0.2 mM EDTA, and 0.005% Tween20 was dispensed to each assay plate. Compounds were stored in dry, ambient temperatures at 10 mM. A 10-point, 1:3 dilution series was prepared from 10 mM stock concentrations in Echo-compatible LDV plates. 10 nL of each compound dilution series was dispensed into assays wells using an Echo 650 (Labcyte inc. USA). 10 nL of 10 mM Lenalidomide was transferred into the active-control wells for the assay and 10 nL of DMSO was transferred into the neutral-control wells. The assay was then allowed to incubate for 30 min at ambient temperature after transferring compound. Plate measurements were taken on a Pherastar FSX (BMG Labtech, Germany) using the HTRF Red filter (Ex. 337 nm, em1: 620 nm, em2: 665 nm) (Flashes: 50, Integration time: 60-400 us, Z-height: 10 mm, Ratio-multiplier: 10,000). The HTRF signal was then subsequently normalized to the neutral and active controls. Analysis and IC50 values were derived using KNIME analytics (KNIME Zurich) transformation and fitting within Collaborative Drug Discovery (Collaborative Drug Discovery USA). Ki was derived from the geometric mean of the IC50 values using the Cheng-Prustoff transformation.

CDK2 = CDK2 (Homo sapiens (Human), UniProt P24941); assay: CDK2 NanoBiT assay (HiBiT-tagged CDK2 degradation); assay type: cell-based; conditions: C-terminal HiBiT tag on CDK2, LgBiT, 24 hours; for Dmax: HEK293, HEK293 clonal line
Experimental: Example 145. NanoBiT Assay
A HEK293 clonal line with a CRISPR knock-in C-terminal HiBiT tag on CDK2 and stably expressing LgBiT protein was obtained from Promega (Madison, WI). Cells were plated at 5000 cells per well using Multiflo (BioTek) in 384-well white solid bottom plates (Corning, 3570BC) in 25 ul volume in DMEM media (DMEM, high glucose, HEPES, no phenol red (ThermoFisher Scientific, 21063029)) containing 10% FBS (Corning, 35-075-CV), 1% Peniciliin/Streptomycin ((ThermoFisher Scientific, 15140-122), and 1% Endurazine (Nano-Glo Endurazine Live Cell Substrate (Promega, N2571)). Cells were incubated for 16 hours at 37 C, 5% CO2. 75 nL of a compound at 30 μM were dosed into the plate using an Echo® 650 liquid handler (Labcyte). Cells were incubated at 37° C., 5% CO2 for 24 hours and then signal was read on a Pherastar FSX using “LUM plus” optic module.
Analysis was performed in Scinamic (Scinamic, Cambridge, MA). Luminescence response (R) was calculated by the formula: response=100*(S−N)/(P−N) where S is the signal of the well, N and P the mean negative and positive control values respectively of the same plate. The luminescence response was then fitted in Scinamic using a 3-parameter agonist logistic fit (hillslope=1, EC50>0, top/bottom unconstrained).

CRBN-DDB1, sequence (Q96SW2 whole entry): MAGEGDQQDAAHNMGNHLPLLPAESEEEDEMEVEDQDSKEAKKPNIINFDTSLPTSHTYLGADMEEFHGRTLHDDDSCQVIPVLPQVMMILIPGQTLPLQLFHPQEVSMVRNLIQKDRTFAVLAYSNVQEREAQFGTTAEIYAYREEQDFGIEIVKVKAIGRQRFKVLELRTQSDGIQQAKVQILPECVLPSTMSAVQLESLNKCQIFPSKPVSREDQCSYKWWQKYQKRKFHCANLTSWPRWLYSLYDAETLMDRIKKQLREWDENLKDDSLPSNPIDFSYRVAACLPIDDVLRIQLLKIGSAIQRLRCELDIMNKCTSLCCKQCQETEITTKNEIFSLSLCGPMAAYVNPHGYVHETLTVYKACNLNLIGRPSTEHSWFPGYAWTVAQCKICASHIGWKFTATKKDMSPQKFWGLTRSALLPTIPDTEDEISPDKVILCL
CRBN-DDB1, sequence (Q16531 whole entry partner): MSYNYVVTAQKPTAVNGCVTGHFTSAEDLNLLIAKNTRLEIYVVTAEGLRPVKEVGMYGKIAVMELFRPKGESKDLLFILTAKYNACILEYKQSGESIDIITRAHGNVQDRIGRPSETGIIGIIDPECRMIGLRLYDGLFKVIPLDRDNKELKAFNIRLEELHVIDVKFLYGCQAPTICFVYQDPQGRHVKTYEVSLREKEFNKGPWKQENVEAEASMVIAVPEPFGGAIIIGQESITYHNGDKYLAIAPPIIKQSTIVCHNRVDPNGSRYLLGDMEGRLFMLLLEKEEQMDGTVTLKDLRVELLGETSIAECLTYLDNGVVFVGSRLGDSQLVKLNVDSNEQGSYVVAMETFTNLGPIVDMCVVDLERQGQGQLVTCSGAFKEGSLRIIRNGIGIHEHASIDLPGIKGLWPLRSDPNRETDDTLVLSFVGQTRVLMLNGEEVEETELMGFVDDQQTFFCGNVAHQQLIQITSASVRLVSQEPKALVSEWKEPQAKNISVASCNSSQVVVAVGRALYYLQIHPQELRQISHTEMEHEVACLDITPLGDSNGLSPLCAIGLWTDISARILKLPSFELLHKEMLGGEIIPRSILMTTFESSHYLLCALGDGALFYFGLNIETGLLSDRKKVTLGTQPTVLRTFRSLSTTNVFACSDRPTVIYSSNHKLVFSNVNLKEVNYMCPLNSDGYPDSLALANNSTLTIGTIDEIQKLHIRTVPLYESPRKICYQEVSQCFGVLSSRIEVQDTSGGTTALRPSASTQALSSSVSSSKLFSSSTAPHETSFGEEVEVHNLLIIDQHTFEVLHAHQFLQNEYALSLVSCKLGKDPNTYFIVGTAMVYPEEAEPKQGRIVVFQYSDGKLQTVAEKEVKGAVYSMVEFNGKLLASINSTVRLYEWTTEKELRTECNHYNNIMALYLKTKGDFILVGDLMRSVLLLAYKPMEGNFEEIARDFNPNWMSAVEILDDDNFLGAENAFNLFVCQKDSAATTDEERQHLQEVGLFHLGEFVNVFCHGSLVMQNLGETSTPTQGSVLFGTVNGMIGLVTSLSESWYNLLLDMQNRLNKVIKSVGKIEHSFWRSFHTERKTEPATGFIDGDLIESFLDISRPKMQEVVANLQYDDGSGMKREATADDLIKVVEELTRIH

Row | Compound | Ki (CRBN-DDB1) | Dmax (CDK2) | CDK2 NanoBiT Dmax (%) (CDK2; HEK293 clonal line)
1 | Cc1ccc(C(=O)N2CC(OC(=O)NC3CN(c4cc(F)c(C5CCC(=O)NC5=O)c(F)c4)C3)C2)cc1 (stereo not drawn) [Compound 23, 1-(4-methylbenzoyl)azetidin-3-yl (1-(4-(2,6-dioxopiperidin-3-yl)-3,5-difluorophenyl)azetidin-3-yl)carbamate] | ≤ 100 nM | 50 to 80% | 
2 | COc1c(N2CC(Nc3nnc(-c4ccc(OC(F)(F)F)cc4)o3)C2)ccc(C2CCC(=O)NC2=O)c1F (stereo not drawn) [Compound 90, 3-(2-fluoro-3-methoxy-4-(3-((5-(4-(trifluoromethoxy)phenyl)-1,3,4-oxadiazol-2-yl)amino)azetidin-1-yl)phenyl)piperidine-2,6-dione] | 100 to 1000 nM | > 80% | 
3 | O=C1CCC(c2c(F)cc(N3CC(NC(=O)OC45CC(C(=O)c6ccccc6)(C4)C5)C3)cc2F)C(=O)N1 (stereo not drawn) [Compound 4] | ≤ 100 nM |  | D (D represents Dmax value of >80%)
4 | CN(C(=O)N1CC(OC(=O)NC2CN(c3cc(F)c(C4CCC(=O)NC4=O)c(F)c3)C2)C1)c1ccccc1Cl (stereo not drawn) [Compound 71, 1-((2-chlorophenyl)(methyl)carbamoyl)azetidin-3-yl (1-(4-(2,6-dioxopiperidin-3-yl)-3,5-difluorophenyl)azetidin-3-yl)carbamate] | ≤ 100 nM | 50 to 80% | 
5 | Cc1cccnc1N1CC(OC(=O)NC2CN(c3cc(F)c(C4CCC(=O)NC4=O)c(F)c3)C2)C1 (stereo not drawn) [Compound 29, 1-(3-methylpyridin-2-yl)azetidin-3-yl (1-(4-(2,6-dioxopiperidin-3-yl)-3,5-difluorophenyl)azetidin-3-yl)carbamate] | ≤ 100 nM | 50 to 80% | 
6 | Cc1cc(Cl)ccc1N(C)C(=O)N1CC(OC(=O)NC2CN(c3cc(F)c(C4CCC(=O)NC4=O)c(F)c3)C2)C1 (stereo not drawn) [Compound 113, 1-((4-chloro-2-methylphenyl)(methyl)carbamoyl)azetidin-3-yl (1-(4-(2,6-dioxopiperidin-3-yl)-3,5-difluorophenyl)azetidin-3-yl)carbamate] | ≤ 100 nM | 10 to 50% | 
7 | CN(C(=O)N1CC(OC(=O)NC2CN(c3cc(F)c(C4CCC(=O)NC4=O)c(F)c3)C2)C1)C1CC1 (stereo not drawn) [Compound 40, 1-(cyclopropyl(methyl)carbamoyl)azetidin-3-yl (1-(4-(2,6-dioxopiperidin-3-yl)-3,5-difluorophenyl)azetidin-3-yl)carbamate] | ≤ 100 nM | 50 to 80% | 
8 | CN(C(=O)N1CC(OC(=O)NC2(C(F)(F)F)CN(c3cc(F)c(C4CCC(=O)NC4=O)c(F)c3)C2)C1)C1CC1 (stereo not drawn) [Compound 11, 1-(cyclopropyl(methyl)carbamoyl)azetidin-3-yl (1-(4-(2,6-dioxopiperidin-3-yl)-3,5-difluorophenyl)-3-(trifluoromethyl)azetidin-3-yl)carbamate] | ≤ 100 nM | 50 to 80% | 
9 | O=C1CCC(c2c(F)cc(N3CC(NC(=O)OC45CC(C(=O)N6CCC6)(C4)C5)C3)cc2F)C(=O)N1 (stereo not drawn) [Compound 126, 3-(azetidine-1-carbonyl)bicyclo[1.1.1]pentan-1-yl (1-(4-(2,6-dioxopiperidin-3-yl)-3,5-difluorophenyl)azetidin-3-yl)carbamate] | ≤ 100 nM | 10 to 50% | 
10 | O=C1CCC(c2c(F)cc(N3CC(NC(=O)OC4CN(C(=O)c5ccc(F)cc5)C4)C3)cc2F)C(=O)N1 (stereo not drawn) [Compound 22, 1-(4-fluorobenzoyl)azetidin-3-yl (1-(4-(2,6-dioxopiperidin-3-yl)-3,5-difluorophenyl)azetidin-3-yl)carbamate] | 100 to 1000 nM | 50 to 80% | 
11 | Cc1ccc(-c2nnc(N[C@H]3CN(c4cc(F)c(C5CCC(=O)NC5=O)c(F)c4)[C@@H]3C)o2)cc1 (stereo partly drawn) [Compound 143, 3-(2,6-difluoro-4-((2R,3S)-2-methyl-3-((5-(p-tolyl)-1,3,4-oxadiazol-2-yl)amino)azetidin-1-yl)phenyl)piperidine-2,6-dione] | 100 to 1000 nM | 50 to 80% | 
12 | Cc1ccccc1N(C)C(=O)C12CC(OC(=O)NC3CN(c4cc(F)c(C5CCC(=O)NC5=O)c(F)c4)C3)(C1)C2 (stereo not drawn) [Compound 135, 3-(methyl(o-tolyl)carbamoyl)bicyclo[1.1.1]pentan-1-yl (1-(4-(2,6-dioxopiperidin-3-yl)-3,5-difluorophenyl)azetidin-3-yl)carbamate] | 100 to 1000 nM | 50 to 80% | 
13 | O=C1CCC(c2ccc(N3CC(NC(=O)OCC4CC5(CCC5)C4)C3)cc2Cl)C(=O)N1 (stereo not drawn) [Compound 60, spiro[3.3]heptan-2-ylmethyl (1-(3-chloro-4-(2,6-dioxopiperidin-3-yl)phenyl)azetidin-3-yl)carbamate] | ≤ 100 nM | > 80% | 
14 | CN(C(=O)N1CCC(OC(=O)NC2CN(c3cc(F)c(C4CCC(=O)NC4=O)c(F)c3)C2)CC1)C1CC1 (stereo not drawn) [Compound 88, 1-(cyclopropyl(methyl)carbamoyl)piperidin-4-yl (1-(4-(2,6-dioxopiperidin-3-yl)-3,5-difluorophenyl)azetidin-3-yl)carbamate] | ≤ 100 nM | 50 to 80% | 
15 | O=C1CCC(c2c(F)cc(N3CC(Nc4nnc(-c5ccccc5)o4)C3)cc2F)C(=O)N1 (stereo not drawn) [Compound 104, 3-(2,6-difluoro-4-(3-((5-phenyl-1,3,4-oxadiazol-2-yl)amino)azetidin-1-yl)phenyl)piperidine-2,6-dione] | ≤ 100 nM | > 80% | 
16 | COc1c(N2CC(Nc3nnc(C4CC5(CCC5)C4)o3)C2)ccc(C2CCC(=O)NC2=O)c1F (stereo not drawn) [Compound 94, 3-(2-fluoro-3-methoxy-4-(3-((5-(spiro[3.3]heptan-2-yl)-1,3,4-oxadiazol-2-yl)amino)azetidin-1-yl)phenyl)piperidine-2,6-dione] | 100 to 1000 nM | > 80% | 
17 | CN(C(=O)N1CC(OC(=S)NC2CN(c3cc(F)c(C4CCC(=O)NC4=O)c(F)c3)C2)C1)C1CC1 (stereo not drawn) [Compound 108, O-(1-(cyclopropyl(methyl)carbamoyl)azetidin-3-yl) (1-(4-(2,6-dioxopiperidin-3-yl)-3,5-difluorophenyl)azetidin-3-yl)carbamothioate] | ≤ 100 nM | > 80% | 
18 | CN(C(=O)N1CC(OC(=O)NC2CN(c3cc(F)c(C4CCC(=O)NC4=O)c(F)c3)C2)C1)c1ccc(F)cc1 (stereo not drawn) [Compound 72, 1-((4-fluorophenyl)(methyl)carbamoyl)azetidin-3-yl (1-(4-(2,6-dioxopiperidin-3-yl)-3,5-difluorophenyl)azetidin-3-yl)carbamate] | ≤ 100 nM | > 80% | 
19 | CC1(NC(=O)OCC2CC3(CCC3)C2)CN(c2cc(F)c(C3CCC(=O)NC3=O)c(F)c2)C1 (stereo not drawn) [Compound 56, spiro[3.3]heptan-2-ylmethyl (1-(4-(2,6-dioxopiperidin-3-yl)-3,5-difluorophenyl)-3-methylazetidin-3-yl)carbamate] | ≤ 100 nM | > 80% | 
20 | CN(C(=O)N1CC(OC(=O)NC2CN(c3cc(F)c(C4CCC(=O)NC4=O)c(F)c3)C2)C1)c1ccc(C#N)cc1 (stereo not drawn) [Compound 73, 1-((4-cyanophenyl)(methyl)carbamoyl)azetidin-3-yl (1-(4-(2,6-dioxopiperidin-3-yl)-3,5-difluorophenyl)azetidin-3-yl)carbamate] | ≤ 100 nM | 50 to 80% | 
21 | CC1(CCc2nnc(NC3CN(c4cc(F)c(C5CCC(=O)NC5=O)c(F)c4)C3)o2)CC1 (stereo not drawn) [Compound 122, 3-(2,6-difluoro-4-(3-((5-(2-(1-methylcyclopropyl)ethyl)-1,3,4-oxadiazol-2-yl)amino)azetidin-1-yl)phenyl)piperidine-2,6-dione] | ≤ 100 nM | 10 to 50% | 
